{"source": "patent US20230121116A1", "about": "“USE OF QUINAZOLINE-BASED TYROSINE KINASE INHIBITORS FOR THE TREATMENT OF CANCERS WITH NRG1 FUSIONS” (Board of Regents, The University of Texas System, priority 2020, published 2023)", "data": [{"tested_on": "MDA175-VII (NRG1-DOC4 fusion) cells", "assay": "Cell viability of MDA175-VII (NRG1-DOC4 fusion) cells, Cell Titer Glo assay", "format": "cell-based", "conditions": "MDA175-VII (NRG1-DOC4 fusion) cells treated with IACS inhibitors, 72 hours", "procedure": "(§1) FIG. 1A. Representative dose response curves of MDA175-VII (NRG1-DOC4 fusion) treated with the indicated IACS novel quinazoline-based TKIs for 72 hours. Cell viability was determined by Cell Titer Glo Assay.\n(§2) FIG. 3A. Representative dose response curves of MDA175-VII (NRG1-DOC4 fusion) treated with the indicated anti-HER2 therapy with or without low dose treatment of IACS inhibitors for 72 hours. Cell viability was determined by Cell Titer Glo Assay.\n(§3) Cell viability was determined by the Cell Titer Glo assay.", "units": {"IC50": "nM"}, "values": [{"compound": "C=CC(=O)N1CC(Oc2cc3c(Nc4ccc(Cl)c(Cl)c4)ncnc3cc2OC)C1", "note": "[IACS-015285]", "IC50": 0.268}, {"compound": "C=CC(=O)N1CC(Oc2cc3c(Nc4ccc(Cl)c(Cl)c4F)ncnc3cc2OC)C1", "note": "[IACS-015293]", "IC50": 0.16}, {"compound": "C=CC(=O)N1CC(Oc2ccc3ncnc(Nc4ccc(Cl)c(Cl)c4)c3n2)C1", "note": "[IACS-052336]", "IC50": 26.8}, {"compound": "C=CC(=O)N1CCC(Oc2cc3c(Nc4ccc(Cl)c(Cl)c4F)c(C#N)cnc3cc2OC)CC1", "note": "[IACS-070709]", "IC50": 1.29}, {"compound": "C=CC(=O)N1CC(Oc2cc3c(Nc4ccc(Cl)cc4Cl)ncnc3cc2OC)C1", "note": "[IACS-070863]", "IC50": 10.5}, {"compound": "C=CC(=O)N1CC(Oc2cc3c(Nc4ccc(Br)c(Cl)c4)ncnc3cc2OC)C1", "note": "[IACS-070864]", "IC50": 0.979}, {"compound": "C=CC(=O)N1CC(Oc2cc3c(Nc4ccccc4)ncnc3cc2OC)C1", "note": "[IACS-070871]", "IC50": 1.08}, {"compound": "C=CC(=O)N1CCC(Oc2cc3c(Nc4ccc(Cl)c(Cl)c4F)ncnc3cc2OC)C1", "note": "(centres unmarked) [IACS-070968]", "IC50": 3.12}, {"compound": "C=CC(=O)N1CCC(Oc2cc3c(Nc4ccc(Cl)c(Cl)c4)ncnc3cc2OC)CC1", "note": "[IACS-070979]", "IC50": 0.157}, {"compound": "C=CC(=O)N1CCC(Oc2cc3c(Nc4ccc(Cl)cc4Cl)ncnc3cc2OC)CC1", "note": "[IACS-070980]", "IC50": 4.46}, {"compound": "C=CC(=O)N1CCC(Oc2cc3c(Nc4ccc(Br)c(Cl)c4)ncnc3cc2OC)CC1", "note": "[IACS-070982]", "IC50": 0.296}, {"compound": "C=CC(=O)N1CCC(Oc2cc3c(Nc4ccccc4)ncnc3cc2OC)CC1", "note": "[IACS-070989]", "IC50": 1.03}]}, {"tested_on": "MDA175-VII (NRG1-DOC4 fusion) cells", "assay": "Cell viability of MDA175-VII (NRG1-DOC4 fusion) cells, Cell Titer Glo assay", "format": "cell-based", "conditions": "MDA175-VII (NRG1-DOC4 fusion) cells treated with anti-HER2 antibodies with or without low dose IACS inhibitors, 72 hours", "procedure": "as §1, §2, §3", "units": {"IC50": "nM"}, "values": [{"compound": "Pertuzumab: recombinant, humanized monoclonal antibody that inhibits dimerization of HER2 [reference compound]", "IC50": 58.2}, {"compound": "T-DM1 [reference compound]", "IC50": 652}]}]}
